Measured values from patent US8410150B2, “Inhibitors of carnitine palmitoyltransferase and treating cancer” (University Health Network, priority 2007, dated 2013).

biological target: T1, human CPT1A (Homo sapiens, UniProt P50416); assay: Human CPT1A LC/MS assay; format: biochemical; conditions: human CPT1A LC/MS assay, dose response format
T1 construct: made in house; host or cells: Saccharomyces cerevisiae (pESC-trp) or cultured mammalian cells (pCDNA3.1); mitochondrial extract
T1 sequence (P50416 1-773): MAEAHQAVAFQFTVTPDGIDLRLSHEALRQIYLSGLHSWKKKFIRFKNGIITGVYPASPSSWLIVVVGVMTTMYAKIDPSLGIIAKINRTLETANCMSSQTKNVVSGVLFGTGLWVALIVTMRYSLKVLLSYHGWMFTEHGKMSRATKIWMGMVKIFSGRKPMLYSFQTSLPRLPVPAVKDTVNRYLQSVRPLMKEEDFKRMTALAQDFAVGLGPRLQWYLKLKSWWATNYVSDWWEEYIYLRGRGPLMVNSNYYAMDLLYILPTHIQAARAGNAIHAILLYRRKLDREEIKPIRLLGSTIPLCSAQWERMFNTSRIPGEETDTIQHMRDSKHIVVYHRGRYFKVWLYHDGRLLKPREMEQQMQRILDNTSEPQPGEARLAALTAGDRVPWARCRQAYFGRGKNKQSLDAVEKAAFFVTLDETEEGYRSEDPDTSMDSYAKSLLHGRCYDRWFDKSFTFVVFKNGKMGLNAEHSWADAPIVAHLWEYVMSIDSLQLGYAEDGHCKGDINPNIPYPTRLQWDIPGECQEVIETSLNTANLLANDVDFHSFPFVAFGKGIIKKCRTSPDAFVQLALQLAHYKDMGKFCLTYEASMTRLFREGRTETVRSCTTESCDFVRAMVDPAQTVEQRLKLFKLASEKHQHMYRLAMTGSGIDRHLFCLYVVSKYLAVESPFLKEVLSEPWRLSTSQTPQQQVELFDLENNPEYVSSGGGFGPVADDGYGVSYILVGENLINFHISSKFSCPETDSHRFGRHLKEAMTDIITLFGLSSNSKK
Outline: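 Mitochondrial extracts (1.6 μg protein) expressing human CPT1A, preincubated 10 min with compound in 20% DMSO, then reacted 10 min at room temperature with 20 μM palmitoyl-CoA, 50 μM L-carnitine (pH 7.5). Palmitoyl carnitine was quantified by LC/MS against a myristoyl carnitine standard; 16-point, 2-fold titrations gave dose response.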

IC50 | SMILES
10 to 100 µM | CCCCC#Cc1ccc(C(=O)N[C@H](CC(=O)[O-])C[N+](C)(C)C)o1 [Example S4, (R)-3-(5-(hex-1-ynyl)furan-2-carboxamido)-4-(trimethylammonio)butanoate]
100 to 1000 µM | C[N+](C)(C)C[C@@H](CC(=O)O)NC(=O)Nc1ccc(-c2ccccc2)cc1 [Example S17, (R)-2-(3-Biphenyl-4-ylureido)-3-carboxy-N,N,N-trimethylpropan-1-aminium acetate]
10 to 100 µM | Cc1ccc(C#Cc2ccc(S(=O)(=O)N[C@H](CC(=O)O)C[N+](C)(C)C)s2)cc1 [Example S80, (R)-3-carboxy-N,N,N-trimethyl-2-(5-(p-tolylethynyl)thiophene-2-sulfonamido)propan-1-aminium 2,2,2-trifluoroacetate]
> 2500 µM | C[N+](C)(C)C[C@@H](CC(=O)[O-])NC(=O)Nc1ccccc1Oc1ccccc1 [Example S100, (R)-3-carboxy-N,N,N-trimethyl-2-(3-(2-phenoxyphenyl)ureido)propan-1-aminium]
≤ 1 µM | C[N+](C)(C)C[C@@H](CC(=O)[O-])NC(=O)c1ccc(CSc2ccc(Cl)cc2)o1 [Example S71, (R)-3-(5-((4-chlorophenylthio)methyl)furan-2-carboxamido)-4-(trimethyl-ammonio)butanoate]
100 to 1000 µM | C[N+](C)(C)C[C@@H](CC(=O)[O-])NC(=O)c1ccc(Br)o1 [Example S114, (R)-3-(5-bromofuran-2-carboxamido)-4-(trimethylammonio)butanoate]
1 to 10 µM | CCCCCc1ccc(C#Cc2ccc(NS(=O)(=O)N[C@H](CC(=O)[O-])C[N+](C)(C)C)cc2)cc1 [Example S107, (R)-3-(N-(4-((4-pentylphenyl)ethynyl)phenyl)sulfamoylamino)-4-(trimethylammonio)butanoate]
10 to 100 µM | C[N+](C)(C)C[C@@H](CC(=O)O)NC(=O)Nc1ccc(C(=O)c2ccccc2)cc1 [Example S16, (R)-2-(3-(4-Benzoylphenyl)ureido)-3-carboxy-N,N,N-trimethylpropan-1-aminium acetate]
10 to 100 µM | C[N+](C)(C)C[C@@H](CC(=O)O)NC(=O)c1ccc(C#Cc2ccsc2)o1 [Example S116, (R)-3-carboxy-N,N,N-trimethyl-2-(5-(thiophen-3-ylethynyl)furan-2-carboxamido)propan-1-aminium 2,2,2-trifluoroacetate]

The remaining lines, values behind:

SMILES | IC50
CCCCCCCCc1ccc(NS(=O)(=O)N[C@H](CC(=O)[O-])C[N+](C)(C)C)cc1 [Example S30, (R)-3-(N-(4-octylphenyl)sulfamoylamino)-4-(trimethylammonio)butanoate] | ≤ 1 µM
CCCCCCC(=O)C(=O)N[C@H](CC(=O)O)C[N+](C)(C)C [Example S120, (R)-3-carboxy-N,N,N-trimethyl-2-(2-oxooctanamido)propan-1-aminium 2,2,2-trifluoroacetate] | 1 to 10 µM
C[N+](C)(C)C[C@@H](CC(=O)[O-])NC(=O)c1ccc(OCC(F)(F)F)nc1 [Example S52, (R)-3-(6-(2,2,2-trifluoroethoxy)nicotinamido)-4-(trimethylammonio)butanoate] | 1000 to 2500 µM
CCCCCc1ccc(NS(=O)(=O)N[C@H](CC(=O)O)C[N+](C)(C)C)cc1 [Example S91, (R)-3-(N-(4-pentylphenyl)sulfamoylamino)-4-(trimethylammonio)butanoate] | ≤ 1 µM
C[N+](C)(C)C[C@@H](CC(=O)O)NC(=O)Nc1ccc(F)c(F)c1F [Example S14, (R)-3-Carboxy-N,N,N-trimethyl-2-(3-(2,3,4-trifluorophenyl)ureido)-propan-1-aminium acetate] | 1000 to 2500 µM
C[N+](C)(C)C[C@@H](CC(=O)O)NC(=O)Nc1ccc(OCc2ccccc2)cc1 [Example S12, (R)-3-(3-(4-(Benzyloxy)phenyl)ureido)-4-(trimethylammonio)butanoate acetate] | 100 to 1000 µM
CC(C)(C)c1ccc(OCc2ccc(C(=O)N[C@H](CC(=O)[O-])C[N+](C)(C)C)o2)cc1 [Example S60, (R)-3-(5-((4-tert-butylphenoxy)methyl)furan-2-carboxamido)-4-(trimethyl-ammonio)butanoate] | 100 to 1000 µM
C[N+](C)(C)C[C@@H](CC(=O)[O-])NC(=O)c1ccc(COc2cccc3ccccc23)o1 [Example S58, (R)-3-(5-((naphthalen-1-yloxy)methyl)furan-2-carboxamido)-4-(trimethyl-ammonio)butanoate] | 1 to 10 µM
C[N+](C)(C)C[C@@H](CC(=O)O)NC(=O)c1ccc(CCc2ccsc2)s1 [Example S98, (R)-3-carboxy-N,N,N-trimethyl-2-(5-(2-(thiophen-3-yl)ethyl)thiophene-2-carboxamido)propan-1-aminium 2,2,2-trifluoroacetate] | ≤ 1 µM
CCCCCCCCOc1ccc(NS(=O)(=O)N[C@H](CC(=O)[O-])C[N+](C)(C)C)cc1 [Example S103, (R)-3-(N-(4-(octyloxy)phenyl)sulfamoylamino)-4-(trimethylammonio) butanoate] | ≤ 1 µM
CCCOc1ccc(C(=O)N[C@H](CC(=O)[O-])C[N+](C)(C)C)cc1 [Example S1, (R)-3-(4-propoxybenzamido)-4-(trimethylammonio)butanoate] | 100 to 1000 µM
Cn1nc(C(F)(F)F)cc1-c1ccc(S(=O)(=O)N[C@H](CC(=O)O)C[N+](C)(C)C)s1 [Example S72, (R)-3-carboxy-N,N,N-trimethyl-2-(5-(1-methyl-3-(trifluoromethyl)-1H-pyrazol-5-yl)thiophene-2-sulfonamido)propan-1-aminium 2,2,2-trifluoroacetate] | 100 to 1000 µM
CCCCCc1ccc(C#Cc2ccc(C(=O)N[C@H](CC(=O)[O-])C[N+](C)(C)C)o2)cc1 [Example S115, (R)-3-carboxy-N,N,N-trimethyl-2-(5-((4-pentylphenyl)ethynyl)furan-2-carboxamido)propan-1-aminium 2,2,2-trifluoroacetate] | ≤ 1 µM
CCCCCCC#Cc1ccc(NS(=O)(=O)N[C@H](CC(=O)[O-])C[N+](C)(C)C)cc1 [Example S106, (R)-3-(N-(4-(oct-1-ynyl)phenyl)sulfamoylamino)-4-(trimethylammonio) butanoate] | 1 to 10 µM
C[N+](C)(C)C[C@@H](CC(=O)O)NC(=O)c1ccc(CCc2ccccc2)s1 [Example S45, (R)-3-(5-phenethylthiophene-2-carboxamido)-4-(trimethylammonio)-butanoate] | ≤ 1 µM
CCCc1ccc(OCc2ccc(C(=O)N[C@H](CC(=O)[O-])C[N+](C)(C)C)o2)c(OC)c1 [Example S55, (R)-3-(5-((2-methoxy-4-propylphenoxy)methyl)furan-2-carboxamido)-4-(trimethylammonio)butanoate] | 10 to 100 µM
COc1ncc(C#Cc2ccc(C(=O)N[C@H](CC(=O)O)C[N+](C)(C)C)o2)cn1 [Example S117] | 100 to 1000 µM
C[N+](C)(C)C[C@@H](CC(=O)[O-])NC(=O)C(F)(F)c1ccccc1 [Example S69, (R)-3-(2,2-difluoro-2-phenylacetamido)-4-(trimethylammonio)butanoate] | 100 to 1000 µM
Cc1cccc(OCc2ccc(C(=O)N[C@H](CC(=O)[O-])C[N+](C)(C)C)o2)c1 [Example S70, (R)-3-(5-(m-tolyloxymethyl)furan-2-carboxamido)-4-(trimethylammonio)-butanoate] | 1 to 10 µM
